Assay results as given in publication PMC3493468 (Chembiochem : a European journal of chemical biology, 2011).
Each block holds one compound with its values, some of them ahead of it. Peptide text beside a SMILES is read from it. * marks the point of attachment. Palmitoyl = CCCCCCCCCCCCCCCC(=O)*

How the values were obtained:
[1] = system: IGF-1 induced activity of AKT; assay: IGF-1-induced AKT activation; type: cell-based; details: MCF-7 cells, compound 1 hour, then IGF-1 25 ng/ml for 20 min; Figure 5
SMO [2] = assay: Inhibition of SMO function / Hedgehog pathway; type: cell-based
SMO [3] = details: cited from earlier work
[4] = Biodistribution of 3H-labeled lipopeptide; type: in vivo, mice; details: subcutaneous, topical, peritoneal or oral administration; Supplementary Figure S6

Compound: CCCCCCCCCCCCCCCC(=O)N[C@@H](CCCNC(=N)N)C(=O)N[C@@H](CC(N)=O)C(=O)N[C@@H](CC(N)=O)C(=O)N[C@@H](CO)C(=O)N[C@@H](CCCNC(=N)N)C(=O)N[C@@H](CC(C)C)C(=O)NCC(=O)N[C@@H](CC(N)=O)C(=O)NCC(=O)N[C@H](C(=O)N[C@@H](CC(C)C)C(=O)N[C@@H](Cc1ccc(O)cc1)C(N)=O)C(C)C [Peptide 16] (Palmitoyl-RNNSRLGNGVLY-NH2)
- inhibition of IGF-1 induced activity of AKT [1]: inhibited IGF-1 induced activity of AKT in a dose-dependent manner

Compound: Ac-LTYAWHTSFKAL-NH2 [SMOi2-9]
- inhibition of SMO function (SMO [2]): inactive

Compound: Ac-(ε-Pal)-KLTYAWHTSFKAL-NH2 [SMOi2-43]
- in vitro activity as inhibitor of the Hedgehog pathway (SMO [3]): potent inhibitor

- entry into circulation [4]: did not enter the circulation
Compound: Ac-AKFSTHWAYTLK-(ε-Pal), all-D [SMOi2-17]
- in vitro activity as inhibitor of the Hedgehog pathway (SMO [3]): subnanomolar range
